Data reported in ChEMBL document CHEMBL1201862, “PubChem BioAssay data set” (2004).
Activity calls are given as the source filed them. Rule as the data show it: actives have a measured IC50 and inactives only a lower limit.

Target: Envelope glycoprotein gp160 (Human immunodeficiency virus 1, UniProt Q6QLK5)
Assay: cell-free HIV fusion peptide-binding blockers – biochemical, uHTS, fluorescence dequenching, […] (AID 1986)

Envelope glycoprotein gp160, sequence (Q6QLK5 whole entry, the tested form may be a part): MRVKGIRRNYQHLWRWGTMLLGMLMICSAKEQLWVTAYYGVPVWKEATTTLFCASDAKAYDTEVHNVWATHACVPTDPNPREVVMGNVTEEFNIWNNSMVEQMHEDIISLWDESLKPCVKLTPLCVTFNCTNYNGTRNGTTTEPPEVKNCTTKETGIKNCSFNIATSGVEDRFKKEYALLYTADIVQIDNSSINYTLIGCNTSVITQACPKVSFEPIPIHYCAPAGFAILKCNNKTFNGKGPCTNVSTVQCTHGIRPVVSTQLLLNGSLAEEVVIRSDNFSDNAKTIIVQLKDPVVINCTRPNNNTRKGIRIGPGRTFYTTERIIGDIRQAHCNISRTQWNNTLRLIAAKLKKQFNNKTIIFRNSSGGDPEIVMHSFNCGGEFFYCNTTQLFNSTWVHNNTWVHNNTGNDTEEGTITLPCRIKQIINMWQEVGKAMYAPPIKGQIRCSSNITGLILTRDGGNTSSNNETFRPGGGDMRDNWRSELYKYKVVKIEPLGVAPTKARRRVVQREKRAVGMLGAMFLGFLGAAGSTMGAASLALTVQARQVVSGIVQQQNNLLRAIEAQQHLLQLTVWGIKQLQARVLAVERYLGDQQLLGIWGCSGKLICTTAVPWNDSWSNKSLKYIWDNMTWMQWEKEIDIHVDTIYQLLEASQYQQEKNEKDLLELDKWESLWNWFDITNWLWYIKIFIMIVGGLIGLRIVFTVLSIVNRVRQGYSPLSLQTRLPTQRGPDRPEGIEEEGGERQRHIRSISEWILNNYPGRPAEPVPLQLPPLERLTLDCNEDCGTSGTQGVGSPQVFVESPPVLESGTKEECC

**Q.** C=CC#CC[N+]1(CC#Cc2ccccc2)CCOCC1 was tested. Which IC50 did it give?
**A.** 22.5 µM (active)

**Q.** For Cc1ccc(-c2nc(SCC(=O)Nc3ccccc3OC(F)F)c3c(C)c(C(=O)O)sc3n2)cc1, which IC50 is on record?
**A.** 15.1 µM (active)

**Q.** For O=C(O)c1cccc(N/N=C/c2cc(Br)cc(Br)c2O)c1, which IC50 is on record?
**A.** 17.1 µM (active)
